These results are taken from ChEMBL document CHEMBL1201862, “PubChem BioAssay data set” (2004).

Assay [1] is described as follows: HepG2 cell cytotoxicity, dose response, cytotoxicity control for Shn3 inhibitor project, CellTiter-Glo, cherry-picked (AID 624134). Type of assay: functional, cell-based.
A short description of assay [2]: Shn3 3'UTR reporter inhibitors, dose response, cell-based, Clone20 osteoblasts, firefly luciferase, cherry-picked (AID 624132).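 Note: firefly luciferase luminescence from reporter carrying the Shn3 3'UTR in osteoblasts.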 The assay is classed as functional.
Another assay deals with T1, Protein RecA (Mycobacterium tuberculosis, UniProt P9WHJ3).
T1 sequence (P9WHJ3 whole entry): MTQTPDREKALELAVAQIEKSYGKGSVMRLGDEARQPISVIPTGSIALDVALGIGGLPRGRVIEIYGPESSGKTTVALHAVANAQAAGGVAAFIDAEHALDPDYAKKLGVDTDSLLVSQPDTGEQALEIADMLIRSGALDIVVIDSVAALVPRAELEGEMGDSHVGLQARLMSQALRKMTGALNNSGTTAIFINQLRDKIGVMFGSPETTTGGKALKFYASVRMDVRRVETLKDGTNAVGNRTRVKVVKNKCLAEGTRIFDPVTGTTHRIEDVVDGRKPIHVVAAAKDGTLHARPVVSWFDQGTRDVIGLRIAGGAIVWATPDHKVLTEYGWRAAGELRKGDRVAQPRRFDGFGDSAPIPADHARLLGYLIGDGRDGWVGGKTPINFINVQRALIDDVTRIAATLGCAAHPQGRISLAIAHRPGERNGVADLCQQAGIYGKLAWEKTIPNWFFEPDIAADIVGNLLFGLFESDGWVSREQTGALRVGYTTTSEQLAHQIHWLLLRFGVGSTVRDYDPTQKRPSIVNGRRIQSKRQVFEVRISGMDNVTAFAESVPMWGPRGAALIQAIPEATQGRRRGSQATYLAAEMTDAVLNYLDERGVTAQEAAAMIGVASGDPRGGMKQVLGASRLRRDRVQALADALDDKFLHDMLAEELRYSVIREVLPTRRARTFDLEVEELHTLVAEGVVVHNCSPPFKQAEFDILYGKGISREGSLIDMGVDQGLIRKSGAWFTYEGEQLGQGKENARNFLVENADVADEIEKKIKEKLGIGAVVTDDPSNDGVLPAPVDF
The assay can be described thus: Fluorescence Cell-Free Homogeneous Dose Retest to Identify Inhibitors of RecA-Intein Splicing Activity. [Related pubchem assays (depositor defined):AID2097, AID2223, AID489010, AID492950]. Type of assay: functional.

Assay [3] in a line: control 3'UTR Renilla luciferase suppression, dose response, counter-screen for Shn3 inhibitor project, cell-based, Clone20-Shn3RL, cherry-picked (AID 624133). Type of assay: functional. (Counterscreens check selectivity or assay interference.)
The target of assay [4] is T2, Replicative DNA helicase DnaB (Mycobacterium tuberculosis, UniProt P9WMR3).
T2 sequence (P9WMR3 whole entry): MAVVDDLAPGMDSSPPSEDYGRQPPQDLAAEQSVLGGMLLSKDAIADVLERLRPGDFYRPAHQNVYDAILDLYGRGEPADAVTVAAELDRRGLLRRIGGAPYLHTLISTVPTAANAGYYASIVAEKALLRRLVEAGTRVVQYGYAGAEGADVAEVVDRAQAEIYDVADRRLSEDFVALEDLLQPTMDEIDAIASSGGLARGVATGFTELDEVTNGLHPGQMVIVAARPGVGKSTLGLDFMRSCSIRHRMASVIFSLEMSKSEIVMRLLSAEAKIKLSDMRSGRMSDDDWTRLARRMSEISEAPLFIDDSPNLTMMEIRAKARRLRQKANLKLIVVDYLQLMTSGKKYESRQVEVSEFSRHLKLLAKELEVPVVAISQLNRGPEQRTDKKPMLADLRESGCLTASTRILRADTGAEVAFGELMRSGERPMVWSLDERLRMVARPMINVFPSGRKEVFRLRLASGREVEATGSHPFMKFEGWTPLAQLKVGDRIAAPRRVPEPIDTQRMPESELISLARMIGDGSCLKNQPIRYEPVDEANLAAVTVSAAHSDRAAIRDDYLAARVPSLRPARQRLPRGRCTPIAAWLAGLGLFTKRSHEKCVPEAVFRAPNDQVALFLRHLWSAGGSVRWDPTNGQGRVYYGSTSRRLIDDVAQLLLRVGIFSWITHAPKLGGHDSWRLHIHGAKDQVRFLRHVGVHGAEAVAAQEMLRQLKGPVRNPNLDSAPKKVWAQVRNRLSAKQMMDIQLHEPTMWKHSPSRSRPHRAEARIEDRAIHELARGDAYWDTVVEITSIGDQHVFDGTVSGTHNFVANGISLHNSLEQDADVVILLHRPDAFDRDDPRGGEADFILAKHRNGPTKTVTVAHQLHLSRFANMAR
The experiment in a line: DnaB intein splicing inhibitors, dose response, biochemical, cell-free fluorescence (AID 449749). The assay is classed as functional.

For assay [5], the target named is T3, Apoptotic protease-activating factor 1 (Homo sapiens, UniProt O14727).
T3 sequence (O14727 whole entry): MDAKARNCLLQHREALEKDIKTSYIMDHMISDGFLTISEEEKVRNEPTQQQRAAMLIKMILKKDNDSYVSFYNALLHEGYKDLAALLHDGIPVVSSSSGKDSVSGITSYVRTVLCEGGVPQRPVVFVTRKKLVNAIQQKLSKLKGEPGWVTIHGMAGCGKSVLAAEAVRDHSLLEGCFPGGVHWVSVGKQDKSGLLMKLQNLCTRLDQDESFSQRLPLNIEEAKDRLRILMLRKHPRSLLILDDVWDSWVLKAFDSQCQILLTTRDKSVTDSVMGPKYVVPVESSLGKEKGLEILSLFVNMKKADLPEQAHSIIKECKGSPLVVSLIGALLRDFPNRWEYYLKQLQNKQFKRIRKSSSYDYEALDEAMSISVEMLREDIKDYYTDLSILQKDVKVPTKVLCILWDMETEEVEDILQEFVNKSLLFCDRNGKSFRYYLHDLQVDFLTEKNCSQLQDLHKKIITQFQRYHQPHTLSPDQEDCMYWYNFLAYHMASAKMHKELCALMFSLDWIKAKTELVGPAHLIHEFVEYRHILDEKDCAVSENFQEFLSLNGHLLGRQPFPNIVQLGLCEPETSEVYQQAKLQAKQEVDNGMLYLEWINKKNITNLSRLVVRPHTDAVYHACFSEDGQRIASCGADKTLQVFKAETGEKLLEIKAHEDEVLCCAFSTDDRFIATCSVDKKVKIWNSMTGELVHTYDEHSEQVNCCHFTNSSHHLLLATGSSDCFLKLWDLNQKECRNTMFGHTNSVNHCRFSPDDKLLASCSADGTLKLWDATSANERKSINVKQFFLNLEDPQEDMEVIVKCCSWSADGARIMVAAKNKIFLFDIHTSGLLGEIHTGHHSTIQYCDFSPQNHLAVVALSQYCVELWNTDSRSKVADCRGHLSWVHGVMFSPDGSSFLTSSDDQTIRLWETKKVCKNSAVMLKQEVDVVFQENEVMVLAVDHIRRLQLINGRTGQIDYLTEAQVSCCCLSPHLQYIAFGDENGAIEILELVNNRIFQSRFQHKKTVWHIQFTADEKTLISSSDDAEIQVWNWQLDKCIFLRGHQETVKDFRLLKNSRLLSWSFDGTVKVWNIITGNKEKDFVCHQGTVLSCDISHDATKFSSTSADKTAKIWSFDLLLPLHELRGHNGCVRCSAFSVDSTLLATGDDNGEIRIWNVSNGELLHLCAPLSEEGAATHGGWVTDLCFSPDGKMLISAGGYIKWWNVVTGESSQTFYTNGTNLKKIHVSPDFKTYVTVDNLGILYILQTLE
The assay is classed as functional.

Active and inactive are the calls of the source. Cut-off read from the data, not from the text of the source, for most assays here: actives have a measured AC50 and inactives only a lower limit.

By AC50 is commonly meant the midpoint of the concentration-response curve, whichever way the signal moves. The term EC50 denotes the midpoint of the concentration-response curve. The IC50 is the concentration that gives 50% inhibition.

As for `CCc1ccc(Nc2n[n+](-c3ccccc3)c(-c3c(Cl)cccc3Cl)s2)cc1`, the AC50 in assay [1] is 14.6 µM (active); in assay [2], 5.4 µM (active); in assay [3], 19.4 µM (active); in assay [4], 3.71 µM (active). In addition, the EC50 on Protein RecA was 9.38 µM (active).
For `CCOC(=O)c1c(C)[nH]c2c1-c1ccccc1C(=O)C2=O` the same measures were 3.96 µM (active), 0.496 µM (active), 1 µM (active), 1.34 µM (active) and 1.82 µM (active).
Regarding `COc1ccc2c(c1)CCC(/C=N/c1ccc3c(c1)OCO3)=C2O`, the IC50 in assay [5] was 17.4 µM (active).
`CC(=O)NC(c1ccc2ccccc2c1)c1ccc2cccnc2c1O` (stereo unspecified): the AC50 in assay [1] is 0.867 µM (active); in assay [2], 0.422 µM (active); in assay [3], 0.51 µM (active).
For the molecule `CCOC(=O)c1c(C)oc2c1c(/C=N/CCC(=O)O)c(O)c1ccccc12`, the EC50 at Protein RecA was 0.39 µM (active). Besides, the AC50 in assay [4] is > 380 µM (inactive). For the same molecule, the IC50 in assay [5] is 12.3 µM (active).
For `CCOC(=O)C1=C(c2ccccc2)N=C(N)NC1c1ccc(OCc2ccc(Cl)cc2)c(OC)c1` (stereo unspecified) the same measures were 14.3 µM (active), 8.68 µM (active) and 14.6 µM (active).
For `O=C(c1ccccc1)c1coc2c1C(=O)c1ccccc1C2=O`, the IC50 in assay [5] is 15 µM (active).
